Measured values taken from PubChem BioAssay AID334 (DTP/NCI, 2004).
Where “and” joins values, the source holds several entries; their conditions need not be identical. Identical values can stand only once. Toxic doses and inconclusive results are not listed. How the source made its calls: active means survival T/C of 150% or more; inactive means T/C below 125% in these data.

Test system: CD2F1 mice, intracerebral P388 leukemia, median survival T/C%
Assay: NCI In Vivo Anticancer Drug Screen. Data for tumor model P388 Leukemia (intracerebral) in CD2F1 (CDF1) mice
Details: endpoint: median survival time, higher = longer survival
Description: The antitumor activity of compounds was measured in mice bearing transplantable tumors. Survival or tumor size were measured and the results are expressed as the measurement made in the treated group (T) divided by the measurement made in the vehicle treated control group (C). The tumor model used in this assay is P388 Leukemia (intracerebral) in CD2F1 (CDF1) mice

[1] = dose: 4.0 mg/kg/injection, schedule: Q01DX009 (ip), vehicle: saline with Tween-80
[2] = dose: 1.0 mg/kg/injection, schedule: Q01DX009 (ip), vehicle: saline
[3] = dose: 2.0 mg/kg/injection, schedule: Q01DX009 (ip), vehicle: saline
[4] = dose: 4.0 mg/kg/injection, schedule: Q01DX009 (ip), vehicle: saline
[5] = dose: 8.0 mg/kg/injection, schedule: Q01DX009 (ip), vehicle: saline
[6] = dose: 25.0 mg/kg/injection, schedule: Q01DX009 (ip), vehicle: saline
[7] = dose: 50.0 mg/kg/injection, schedule: Q01DX009 (ip), vehicle: saline
[8] = dose: 16.0 mg/kg/injection, schedule: Q01DX005 (ip), vehicle: saline
[9] = dose: 32.0 mg/kg/injection, schedule: Q01DX005 (ip), vehicle: saline
[10] = dose: 8.0 mg/kg/injection, schedule: Q01DX009 (ip), vehicle: saline with Tween-80
[11] = dose: 16.0 mg/kg/injection, schedule: Q01DX009 (ip), vehicle: saline with Tween-80
[12] = dose: 0.25 mg/kg/injection, schedule: Q01DX009 (ip), vehicle: saline
[13] = dose: 0.5 mg/kg/injection, schedule: Q01DX009 (ip), vehicle: saline

Measured: T/C

O=NN(CCCl)C(=O)NC1CCC(=O)NC1=O (centres undefined)
active: dose: 3.0 mg/kg/injection, schedule: Q01DX009 (ip), vehicle: saline with Tween-80 221 % of control | [1] 242 % of control | dose: 6.0 mg/kg/injection, schedule: Q01DX009 (ip), vehicle: saline with Tween-80 250 % of control | dose: 8.0 mg/kg/injection, schedule: Q01DX001 (ip), vehicle: saline 156 % of control | dose: 16.0 mg/kg/injection, schedule: Q01DX001 (ip), vehicle: saline 212 % of control | dose: 32.0 mg/kg/injection, schedule: Q01DX001 (ip), vehicle: saline 262 % of control | dose: 64.0 mg/kg/injection, schedule: Q01DX001 (ip), vehicle: saline 212 % of control
inactive: dose: 4.0 mg/kg/injection, schedule: Q01DX001 (ip), vehicle: saline 114 % of control

CC(=O)NNC(=O)c1ccccn1
inactive: dose: 100.0 mg/kg/injection, schedule: Q01DX005 (ip), vehicle: Klucel (hydroxypropylcellulose) (HPC) 116 % of control and 100 % of control | dose: 200.0 mg/kg/injection, schedule: Q01DX005 (ip), vehicle: Klucel (hydroxypropylcellulose) (HPC) 113 % of control and 100 % of control

Nc1ccc2nc3ccc(N)cc3[n+](-c3ccccc3)c2c1
inactive: [2] 89 % of control | [3] 87 % of control | [4] 99 % of control | [5] 99 % of control

CS(=O)(=O)CS(=O)(=O)OCCCl
active: [6] 164 % of control | [7] 203 % of control
inactive: dose: 6.25 mg/kg/injection, schedule: Q01DX009 (ip), vehicle: saline 110 % of control | dose: 12.5 mg/kg/injection, schedule: Q01DX009 (ip), vehicle: saline 114 % of control

NC(CSC(c1ccccc1)(c1ccccc1)c1ccccc1)C(=O)O (centres undefined)
inactive: dose: 32.0 mg/kg/injection, schedule: Q01DX005 (ip), vehicle: Klucel (hydroxypropylcellulose) (HPC) 99 % of control and 106 % of control | dose: 64.0 mg/kg/injection, schedule: Q01DX005 (ip), vehicle: Klucel (hydroxypropylcellulose) (HPC) 102 % of control and 110 % of control | dose: 128.0 mg/kg/injection, schedule: Q01DX005 (ip), vehicle: Klucel (hydroxypropylcellulose) (HPC) 114 % of control and 100 % of control | dose: 256.0 mg/kg/injection, schedule: Q01DX005 (ip), vehicle: Klucel (hydroxypropylcellulose) (HPC) 121 % of control

CC1(C)N=C(N)N=C(N)N1c1ccc(OCC(=O)Nc2ccc(S(=O)(=O)F)cc2)c(Cl)c1
inactive: dose: 50.0 mg/kg/injection, schedule: Q04DX003 (ip), vehicle: saline 111 % of control | dose: 100.0 mg/kg/injection, schedule: Q04DX003 (ip), vehicle: saline 100 % of control | dose: 200.0 mg/kg/injection, schedule: Q04DX003 (ip), vehicle: saline 111 % of control

CCC1=C(c2ccc(OC)cc2)CCC(C(=O)O)C1C (centres undefined)
inactive: dose: 4.0 mg/kg/injection, schedule: Q01DX005 (ip), vehicle: saline 99 % of control and 104 % of control | dose: 8.0 mg/kg/injection, schedule: Q01DX005 (ip), vehicle: saline 95 % of control and 100 % of control | [8] 90 % of control and 98 % of control | [9] 96 % of control and 102 % of control

CC1(C)N=C(N)N=C(N)N1c1ccc(OCC(=O)N2CCOCC2)c(Cl)c1
inactive: [6] 88 % of control | [7] 111 % of control | dose: 100.0 mg/kg/injection, schedule: Q01DX009 (ip), vehicle: saline 100 % of control

CC(=O)OCC1C(=O)OCC1C(=O)N1Cc2cc3ccccc3nc2C1 (centres undefined)
inactive: [1] 101 % of control | [10] 103 % of control | [11] 96 % of control | dose: 32.0 mg/kg/injection, schedule: Q01DX009 (ip), vehicle: saline with Tween-80 107 % of control | dose: 64.0 mg/kg/injection, schedule: Q01DX009 (ip), vehicle: saline with Tween-80 102 % of control | dose: 128.0 mg/kg/injection, schedule: Q01DX009 (ip), vehicle: saline with Tween-80 96 % of control

CC1(C)N=C(N)N=C(N)N1c1ccc(CNC(=O)Nc2cccc(S(=O)(=O)F)c2)cc1
inactive: dose: 150.0 mg/kg/injection, schedule: Q04DX003 (ip), vehicle: saline 122 % of control | dose: 225.0 mg/kg/injection, schedule: Q04DX003 (ip), vehicle: saline 116 % of control

CN(Cc1cnc2nc(N)nc(N)c2n1)c1c(Cl)cc(C(=O)NC(CCC(=O)O)C(=O)O)cc1Cl (centres undefined)
inactive: [8] 115 % of control | [9] 121 % of control | dose: 128.0 mg/kg/injection, schedule: Q01DX005 (ip), vehicle: saline 86 % of control

O=C1C=C(N2CC2)C(=O)C=C1N1CC1
inactive: dose: 0.12 mg/kg/injection, schedule: Q01DX009 (ip), vehicle: saline 104 % of control and 105 % of control and 106 % of control | [12] 100 % of control and 101 % of control and 105 % of control | [13] 105 % of control and 107 % of control and 111 % of control | [2] 92 % of control and 93 % of control and 100 % of control

COc1ccc(CC2C(=O)NC(C)C(=O)N(C)C3C(=O)N(C)C(Cc4ccc(O)c(c4)Oc4ccc(cc4)C3O)C(=O)NC(C)C(=O)NC(C)C(=O)N2C)cc1 (centres undefined)
inactive: dose: 0.12 mg/kg/injection, schedule: Q01DX009 (ip), vehicle: Klucel (hydroxypropylcellulose) (HPC) 91 % of control and 98 % of control | dose: 0.13 mg/kg/injection, schedule: Q01DX009 (ip), vehicle: saline 104 % of control and 108 % of control | dose: 0.25 mg/kg/injection, schedule: Q01DX009 (ip), vehicle: Klucel (hydroxypropylcellulose) (HPC) 100 % of control and 103 % of control and 109 % of control | [12] 101 % of control and 109 % of control | dose: 0.5 mg/kg/injection, schedule: Q01DX009 (ip), vehicle: Klucel (hydroxypropylcellulose) (HPC) 100 % of control and 101 % of control and 106 % of control | [13] 104 % of control and 111 % of control | dose: 1.0 mg/kg/injection, schedule: Q01DX009 (ip), vehicle: Klucel (hydroxypropylcellulose) (HPC) 95 % of control and 101 % of control and 106 % of control | [2] 97 % of control and 103 % of control | dose: 2.0 mg/kg/injection, schedule: Q01DX009 (ip), vehicle: Klucel (hydroxypropylcellulose) (HPC) 89 % of control | [3] 109 % of control and 111 % of control

CC(=O)N[C@@H](Cc1ccc(N(CCCl)CCCl)cc1)C(=O)ON1C(=O)CCC1=O
inactive: dose: 1.45 mg/kg/injection, schedule: Q03HX008 (ip), vehicle: saline 105 % of control | dose: 2.9 mg/kg/injection, schedule: Q03HX008 (ip), vehicle: saline 105 % of control | dose: 5.8 mg/kg/injection, schedule: Q03HX008 (ip), vehicle: saline 115 % of control

CCCCCCCCCCCCCCCCCC(=O)NC(CC(=O)OCCCCCC)c1ccc(N(CCCl)CCCl)cc1 (centres undefined)
active: dose: 69.0 mg/kg/injection, schedule: Q03HX008 (ip), vehicle: saline 152 % of control
inactive: dose: 2.15 mg/kg/injection, schedule: Q03HX008 (ip), vehicle: saline 105 % of control | dose: 4.3 mg/kg/injection, schedule: Q03HX008 (ip), vehicle: saline 105 % of control | dose: 8.6 mg/kg/injection, schedule: Q03HX008 (ip), vehicle: saline 105 % of control | dose: 275.0 mg/kg/injection, schedule: Q03HX008 (ip), vehicle: saline 121 % of control

Nc1nc(F)nc2c1ncn2C1OC(COP(=O)(O)O)C(O)C1O (centres undefined)
active: dose: 200.0 mg/kg/injection, schedule: Q01DX009 (ip), vehicle: saline 205 % of control
inactive: dose: 60.0 mg/kg/injection, schedule: Q01DX009 (ip), vehicle: saline 102 % of control | dose: 90.0 mg/kg/injection, schedule: Q01DX009 (ip), vehicle: saline 111 % of control | dose: 134.0 mg/kg/injection, schedule: Q01DX009 (ip), vehicle: saline 119 % of control

COc1cccc2c1C(=O)c1c(O)c3c(c(O)c1C2=O)C[C@@](O)(/C(C)=N/NC(=O)c1ccccc1)C[C@@H]3OC1CC(N)C(O)C(C)O1 (some centres undefined)
inactive: dose: 1.0 mg/kg/injection, schedule: Q01DX009 (ip), vehicle: saline with Tween-80 111 % of control | [2] 103 % of control and 106 % of control | dose: 2.0 mg/kg/injection, schedule: Q01DX009 (ip), vehicle: saline with Tween-80 90 % of control and 108 % of control | [3] 113 % of control and 106 % of control | [1] 114 % of control and 116 % of control | [4] 113 % of control and 111 % of control | [10] 106 % of control and 111 % of control | [5] 100 % of control and 103 % of control | [11] 90 % of control and 94 % of control

O=C1N(Cl)C(=O)C(c2ccc(Cl)cc2)(c2ccc(Cl)cc2)N1Cl
inactive: dose: 50.0 mg/kg/injection, schedule: Q01DX009 (ip), vehicle: saline with Tween-80 94 % of control | dose: 100.0 mg/kg/injection, schedule: Q01DX009 (ip), vehicle: saline with Tween-80 105 % of control | dose: 200.0 mg/kg/injection, schedule: Q01DX009 (ip), vehicle: saline with Tween-80 94 % of control

CN1CC[C@]23c4c5ccc(O)c4O[C@H]2C(=O)CC[C@H]3[C@H]1C5
inactive: dose: 3.12 mg/kg/injection, schedule: Q01DX005 (iv), vehicle: saline 106 % of control | dose: 6.25 mg/kg/injection, schedule: Q01DX005 (iv), vehicle: saline 104 % of control | dose: 12.5 mg/kg/injection, schedule: Q01DX005 (iv), vehicle: saline 95 % of control
